These results are taken from PubChem BioAssay AID1259407 (Chemical Carcinogenesis Research Information System (CCRIS), 2018).

The source made the active and inactive calls. No rule for the calls is given here.

In the data set the test system is CCRIS mutagenicity, Ames/micronucleus/aberration tests. Nature of the data set: CCRIS mutagenicity studies.
Where [1] appears, read: Test System: AMES SALMONELLA TYPHIMURIUM, Strain/Indicator: TA98, Metabolic Activation: NONE, Method: STANDARD PLATE.
The mark [2] stands for this setting: Test System: AMES SALMONELLA TYPHIMURIUM, Strain/Indicator: TA100, Metabolic Activation: NONE, Method: STANDARD PLATE.

As for `Nc1ccc(S(=O)(=O)O)cc1`, the mutagenic call runs as follows: (Test System: AMES SALMONELLA TYPHIMURIUM, Strain/Indicator: TA97, Metabolic Activation: HAMSTER, LIVER, S-9, AROCLOR 1254 (10 OR 30%), Method: PREINCUBATION) “inactive; negative”; (Test System: AMES SALMONELLA TYPHIMURIUM, Strain/Indicator: TA97, Metabolic Activation: NONE, Method: PREINCUBATION) “inactive; negative”; (Test System: AMES SALMONELLA TYPHIMURIUM, Strain/Indicator: TA97, Metabolic Activation: RAT, LIVER, S-9, AROCLOR 1254 (10 OR 30%), Method: PREINCUBATION) “inactive; negative”; (Test System: AMES SALMONELLA TYPHIMURIUM, Strain/Indicator: TA98, Metabolic Activation: HAMSTER, LIVER, S-9, AROCLOR 1254 (10 OR 30%), Method: PREINCUBATION) “inactive; negative”; (Test System: AMES SALMONELLA TYPHIMURIUM, Strain/Indicator: TA98, Metabolic Activation: NONE, Method: PREINCUBATION) “inactive; negative”; (Test System: AMES SALMONELLA TYPHIMURIUM, Strain/Indicator: TA98, Metabolic Activation: RAT, LIVER, S-9, AROCLOR 1254 (10 OR 30%), Method: PREINCUBATION) “inactive; negative”. Moreover, the mutagenic call is, setting by setting: (Test System: AMES SALMONELLA TYPHIMURIUM, Strain/Indicator: TA98, Metabolic Activation: RAT, LIVER, S-9, PHENOBARBITAL, Method: PREINCUBATION) “inactive; negative”; (Test System: AMES SALMONELLA TYPHIMURIUM, Strain/Indicator: TA100, Metabolic Activation: HAMSTER, LIVER, S-9, AROCLOR 1254 (10 OR 30%), Method: PREINCUBATION) “inactive; negative”; (Test System: AMES SALMONELLA TYPHIMURIUM, Strain/Indicator: TA100, Metabolic Activation: NONE, Method: PREINCUBATION) “inactive; negative”; (Test System: AMES SALMONELLA TYPHIMURIUM, Strain/Indicator: TA100, Metabolic Activation: RAT, LIVER, S-9, AROCLOR 1254 (10 OR 30%), Method: PREINCUBATION) “inactive; negative”; (Test System: AMES SALMONELLA TYPHIMURIUM, Strain/Indicator: TA100, Metabolic Activation: RAT, LIVER, S-9, PHENOBARBITAL, Method: PREINCUBATION) “inactive; negative”; (Test System: AMES SALMONELLA TYPHIMURIUM, Strain/Indicator: TA1535, Metabolic Activation: HAMSTER, LIVER, S-9, AROCLOR 1254 (10 OR 30%), Method: PREINCUBATION) “inactive; negative”. For the same compound, the mutagenic call (Test System: AMES SALMONELLA TYPHIMURIUM, Strain/Indicator: TA1535, Metabolic Activation: NONE, Method: PREINCUBATION) is “inactive; negative”; the mutagenic call (Test System: AMES SALMONELLA TYPHIMURIUM, Strain/Indicator: TA1535, Metabolic Activation: RAT, LIVER, S-9, AROCLOR 1254 (10 OR 30%), Method: PREINCUBATION) was “inactive; negative”; the mutagenic call (Test System: Ames Salmonella typhimurium, Strain/Indicator: TA102, Metabolic Activation: None, Method: Preincubation) is “inactive; negative”; the mutagenic call (Test System: Ames Salmonella typhimurium, Strain/Indicator: TA102, Metabolic Activation: Rat, Liver, S9, Aroclor 1254, Method: Preincubation) was “inactive; negative”; the mutagenic call (Test System: Ames Salmonella typhimurium, Strain/Indicator: TA104, Metabolic Activation: None, Method: Preincubation) is “inactive; negative”; the mutagenic call (Test System: Ames Salmonella typhimurium, Strain/Indicator: TA104, Metabolic Activation: Rat, Liver, S9, Aroclor 1254, Method: Preincubation) is “inactive; negative”.

With `O=C1OC[C@@H](Cc2cccc(O)c2)[C@@H]1Cc1cccc(O)c1`, the mutagenic call is “inactive; negative” (Test System: CHINESE HAMSTER V79 CELLS, Strain/Indicator: V79 CELLS (HPRT)/6-THIOGUANINE, Metabolic Activation: NONE, Method: SUSPENSION/PLATE) and “inactive; negative” (Test System: CHINESE HAMSTER V-79, Strain/Indicator: V-79 (HPRT)/6-THIOGUANINE, Metabolic Activation: NONE).

Turning to `C/C([O-])=C(/N=Nc1cc(S(N)(=O)=O)ccc1[O-])C(=O)Nc1ccccc1.C/C([O-])=C(\N=Nc1cc(S(N)(=O)=O)ccc1[O-])C(=O)Nc1ccccc1.[Co+2]`, the mutagenic call by setting is: (Test System: MOUSE LYMPHOMA, Strain/Indicator: L5178Y (TK+/TK-), Metabolic Activation: NONE, Method: SUSPENSION/PLATE) “inactive; negative. reevaluation of results: negative”; (Test System: MOUSE LYMPHOMA, Strain/Indicator: L5178Y (TK+/TK-), Metabolic Activation: RAT, LIVER, S-9, AROCLOR 1254, Method: SUSPENSION/PLATE) “inactive; negative. reevaluation of results: negative”.

As for `c1ccc2c(c1)C1CCCCC1[C@@H]1O[C@@H]21` (some centres not stated), the mutagenic call is, setting by setting: under setting [1], “inactive; negative”; under setting [2], “inactive; negative”.

Consider `Nc1ccc(/C=C/c2cccc(N)c2)cc1`, for which the mutagenic call reads like this: (Test System: AMES SALMONELLA TYPHIMURIUM, Strain/Indicator: TA98(1,8-DNP6), Metabolic Activation: NONE, Method: STANDARD PLATE) “inactive; negative”; (Test System: AMES SALMONELLA TYPHIMURIUM, Strain/Indicator: TA98(1,8-DNP6), Metabolic Activation: S-9, Method: STANDARD PLATE) “active; positive”; under setting [1], “active; positive”; (Test System: AMES SALMONELLA TYPHIMURIUM, Strain/Indicator: TA98, Metabolic Activation: S-9, Method: STANDARD PLATE) “active; positive”; under setting [2], “inactive; negative”; (Test System: AMES SALMONELLA TYPHIMURIUM, Strain/Indicator: TA100, Metabolic Activation: S-9, Method: STANDARD PLATE) “active; positive”.

On to `COc1cccc(CN2[C@@H]3c4ccccc4-c4ccccc4[C@@H]32)c1` (some centres not stated), for which, under setting [2], the mutagenic call is “active; positive”.

On to `O=[N+]([O-])c1cc2[nH]c3ccc4ccc(O)cc4c3c2c2ccccc12`, for which the mutagenic call reads like this: under setting [1], “active; positive”; (Test System: AMES SALMONELLA TYPHIMURIUM, Strain/Indicator: TA98, Metabolic Activation: RAT, LIVER, S-9, 3-METHYLCHOLANTHRENE, Method: STANDARD PLATE) “active; positive”; under setting [2], “active; positive”; (Test System: AMES SALMONELLA TYPHIMURIUM, Strain/Indicator: TA100, Metabolic Activation: RAT, LIVER, S-9, 3-METHYLCHOLANTHRENE, Method: STANDARD PLATE) “active; positive”.

As to `C/C=C(\C)CCl`, the mutagenic call is, setting by setting: (Test System: AMES SALMONELLA TYPHIMURIUM, Strain/Indicator: TA100, Metabolic Activation: NONE, Method: LIQUID SUSPENSION) “active; positive”; (Test System: AMES SALMONELLA TYPHIMURIUM, Strain/Indicator: TA100, Metabolic Activation: RAT, LIVER, S-9, Method: LIQUID SUSPENSION) “active; positive”.
